Patent US7879792B2, “Synthetic peptide inhibitors of thrombin and thrombin activation of protease activated receptors 1 and 4” (The Regents of the University of Michigan, priority 2005, dated 2011)
Where a SMILES comes first, the peptide text is derived from it.

How the values were obtained:
[1] = target: T1, recombinant extracellular domain of human PAR1 (rPAR1EC) (Homo sapiens, UniProt P25116); experiment: inhibition of RPPGFK-biotin binding to rPAR1EC; conditions: 15 μM RPPGFK-biotin
T1 construct: A portion of the extracellular domain of human PAR1 (Ala^26-Ser^99) (rPAR1EC) was expressed in Escherichia coli; KSI fusion protein (cleaved yes); His tag (cleaved yes); made in house; host or cells: E. coli BL21(DE3), pET31b
T1 sequence (P25116 26-99): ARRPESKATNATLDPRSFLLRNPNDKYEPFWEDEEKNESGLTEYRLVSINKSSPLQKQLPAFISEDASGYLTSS

[2] = target: T2, recombinant extracellular domain of human PAR4 (rPAR4EC) (Homo sapiens, UniProt Q96RI0); experiment: inhibition of RPPGFK-biotin binding to rPAR4EC; conditions: 15 μM RPPGFK-biotin
T2 construct: starting with Gly^18, the first amino acid after the signal peptide is removed, and finishing with Arg^78; KSI fusion protein (N, cleaved yes); His-tag (N, cleaved yes); made in house; host or cells: E. coli 'BLD (DE3)' cells, pET31b; cDNA from HEL cell mRNA
T2 sequence (Q96RI0 18-78): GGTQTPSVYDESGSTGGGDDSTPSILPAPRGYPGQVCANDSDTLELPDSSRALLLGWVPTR
Experimental: Investigations were performed to determine if the compounds in the present invention interact with the exodomain of human PAR4. The extracellular fragment of human PAR4 has been expressed in bacteria. Human erythroleukemia (HEL) cells were used as a source for PAR4 mRNA. The level of PAR4 mRNA was substantially higher in HEL cells than washed human platelets. […] These primers give a 204 basepair fragment which codes for a 61 amino acid hPAR4 protein starting with Gly^18, the first amino acid after the signal peptide is removed, and finishing with Arg^78, the last amino acid of the extracellular fragment (Xu et al. Proc. Natl. Acad. Sci. 95, 6642-6646 (1998)). The pET31b-PAR4 vector after cloning was used to transform BLD (DE3) cells to express the recombinant protein. After IPTG stimulation, the recombinant protein was isolated from the bacterial lysate on a nickel affinity column followed by treatment with CNBr to remove the KSI fusion protein and His-tag on its amino terminal end. The isolated recombinant extracellular domain of PAR4 (rPAREC) is about 9 kDa on 16.5% Tris-Tricine SDS-PAGE. The recombinant protein is recognized as being human PAR4 by detection with an antibody prepared from a peptide (S^41[…]^52) (SEQ ID NO:9) from human PAR4EC. Recombinant PAR4EC was linked to microtiter plate cuvette wells. Goat polyclonal antibody to human PAR1, PAR3, or PAR4 was incubated with the coated microtiter plate cuvette wells and antibody binding was detected. Only antibody to PAR4 detected rPAR4EC linked to the microtiter plate wells. […] These studies indicate that peptides of the present invention also physically interact with human PAR4.

[3] = test system: γ-thrombin-induced platelet aggregation; experiment: γ-thrombin-induced platelet aggregation in human platelet-rich plasma; type: cell-based; conditions: for Concentration of Peptide [mM] That Gives 100% Inhibition: 40 nM human gamma thrombin, human platelet-rich plasma
Experimental: Fresh whole blood was collected and mixed with 0.013 M sodium citrate and platelet-rich plasma was prepared according to the method of Meloni et al., J. Biol. Chem. 266, 6786 (1991). Platelet-rich plasma with a normalized platelet count between 2-2.5×10^8 platelets/ml was added to a cuvette of an aggregometer (Chronlog Corp., Havertown, Pa.), standardized using the protocol of Meloni et al., supra. Peptides to be examined were added to the cuvette and the mixture stabilized for a few moments. Once the baseline was stabilized, γ-thrombin (10-70 nM) (Haematologic Technologies, Essex Junction, Vt.) was added to determine the minimal concentration of the agonist necessary to achieve full platelet aggregation. All investigations with peptides were performed using threshold concentrations of γ-thrombin. Aggregation was allowed to proceed for 5 minutes before stopping.
Table III is a tabulation of the library of peptides prepared and their influence on γ-thrombin-induced platelet aggregation in platelet-rich plasma. […] The numbers in the column represent the minimal concentration (mM) of the peptide that blocked 100% γ-thrombin-induced platelet aggregation of platelets in human platelet-rich plasma.
Human platelet samples were stimulated with 40 nM human gamma thrombin in each experiment.

[4] = test system: normal human citrated plasma; experiment: prothrombin time (PT); type: biochemical
Experimental: (§1) The influence of the various peptide formulations used in the present invention on established coagulation-based assays was determined. The activated partial thromboplastin time (APTT) is performed by mixing 0.05 ml normal human citrated plasma with 0.05 ml activated partial thromboplastin reagent purchased from Organon Teknika, Research Triangle Park, NC in the absence or presence of a peptide inhibitor. After incubation for 5 min at 37° C., the mixture is recalcified with 0.05 ml of 30 mM calcium chloride and the time to clot formation is measured in an Amelung KC4A instrument (Sigma Chemical Corp, St. Louis, Mo.) (Hasan et al. Thrombosis and Haemostasis. 82, 1182-1187 (1999)). The prothrombin time (PT) is performed by mixing 0.05 ml normal human citrated plasma with 0.05 ml Simplastin (Organon Teknika, Research Triangle Park, NC) followed by incubation for 3 min at 37° C. in the absence or presence of a peptide inhibitor. At the addition of 0.05 ml of 30 mM calcium chloride, the time to clot formation is measured in an KC4A instrument (Sigma Chemical Corp, St. Louis, Mo.) (Hasan et al. Thrombosis and Haemostasis. 82, 1182-1187 (1999)). The thrombin clotting time (TCT) is performed by adding 0.1 ml normal human citrated plasma in the absence or presence of a peptide inhibitor and 0.05 ml of a α-thrombin solution such that the final concentration of the thrombin in the entire mixture was 1 nM. Upon addition of the thrombin, the time to clot formation is measured in an KC4A instrument (Sigma Chemical Corp, St. Louis, Mo.).

[5] = test system: normal human citrated plasma; experiment: thrombin clotting time (TCT); type: biochemical; conditions: 1 nM thrombin
Experimental: as §1

[6] = test system: normal human citrated plasma; experiment: activated partial thromboplastin time (APTT); type: biochemical
Experimental: as §1

RPPGFK-biotin displaced from rPAR4 exodomain ([2]; 1 μM peptide (so in the source)) [%] | SMILES | RPPGFK-biotin displaced from rPAR1 exodomain ([1]; 1000 μM (1 mM) peptide) [%] | Concentration of Peptide [mM] That Gives 100% Inhibition [3] [mM] | RPPGFK-biotin displaced from rPAR1 exodomain ([1]; 30 μM peptide) [%] | RPPGFK-biotin displaced from rPAR1 exodomain ([1]; 300 μM peptide) [%] | RPPGFK-biotin displaced from rPAR4 exodomain ([2]; 30 μM peptide) [%] | RPPGFK-biotin displaced from rPAR4 exodomain ([2]; 300 μM peptide) [%] | RPPGFK-biotin displaced from rPAR4 exodomain ([2]; 1000 μM peptide) [%] | peptide concentration with significant prolongation (p<0.05) of the PT [4] [µM] | peptide concentration with significant prolongation (p<0.05) of the TCT [5] [µM] | concentration that abolished γ-thrombin-induced platelet aggregation ([3]; 40 nM γ-thrombin) | γ-thrombin-induced platelet aggregation ([3]; 8 μM peptide, 40 nM γ-thrombin) | peptide concentration with significant prolongation (p<0.05) of the APTT [6] [µM]
50 | N=C(N)NCCC[C@@H](N)C(=O)N1[C@H](C(=O)N2CCC[C@H]2C(=O)NCC(=O)N[C@@H](Cc2ccccc2)C(N)=O)C[C@@H]2CCCC[C@@H]21 [rOicPGF, D-Arg-Oic-Pro-Gly-Phe, reference compound] (HELM PEPTIDE1{[dR].[O=C([C@@H]1C[C@@H]2CCCC[C@@H]2N1[*:1])[*:2]].P.G.F.[am]}$$$$V2.0) | 50 | 0.142 | – | – | – | – | – | – | – | – | – | –
– | Cc1ccc(C[C@H](NC(=O)[C@@H](C)NC(=O)[C@@H]2CCCN2C(=O)[C@@H]2C[C@@H]3CCCC[C@@H]3N2C(=O)[C@H](N)CCCNC(=N)N)C(N)=O)cc1 [rOicPaF(p-Me), D-Arg-Oic-Pro-D-Ala-Phe(p-Me)] (HELM PEPTIDE1{[dR].[O=C([C@@H]1C[C@@H]2CCCC[C@@H]2N1[*:1])[*:2]].P.[dA].[Cc1ccc(C[C@H](N[*:1])C(=O)[*:2])cc1].[am]}$$$$V2.0) | 69 | 0.016 | 23 | 52 | 19 | 49 | 63 | 1.56 | 0.78 | greater than or equal to 16 μM | returned to normal | 1.56
